Experimental data: paper PMC5614982, “Impact of Gastric H^+/K^+-ATPase rs2733743 on the Intragastric pH-Values of Dexlansoprazole Injection in Chinese Subjects” (Frontiers in Pharmacology, 2017)

Test: Pharmacokinetics of dexlansoprazole injection after single intravenous infusion in healthy Chinese subjects
Assay type: in vivo, human
Conditions: for Vd / clearance / half-life: iv
Method: Dexlansoprazole injection (30 mg per vial) used in the PK and PD study was manufactured by Nanjing Yoko Pharma Co., Ltd. (Nanjing, China). Subjects received an intravenous infusion of 20 or 30 mg dexlansoprazole injection in sterile saline solution (100 mL/h, 60 min). The study drug was administrated with an infusing pump (SA213, Lifepum, Beijing, China) and given through an intravenous catheter in the antecubital vein opposite to the one from which blood samples were taken.
To determine the pharmacokinetic properties of dexlansoprazole injection in human, a series of venous blood samples (5 mL) were collected in heparinized tubes at 0 (pre-dose), 10, 20, 40, 60, and 75 min, 1.5, 2, 2.5, 3, 4, 6, 9, 12, 16, 24, and 36 h post-dose. Samples were centrifuged immediately at 4°C for 10 min at 3,500 revolutions per minute, then separated and stored at −80°C for PK analysis.
A chiral liquid chromatography-mass spectrometry method was developed and validated for the simultaneous determination of (R)- and (S)-lansoprazole in human plasma, with the calibration curve of 500–3,000 ng/mL for both (R)- and (S)-lansoprazole (Sun et al., [2015]). […] The mass spectrometric analysis was performed using a QTrap 5500 mass spectrometer (AB Sciex, Concord, Ontario, Canada).
The PK parameter of Cmax (maximum concentration) and Tmax (the time to Cmax) were obtained directly from the observed data. Other PK parameters including t1/2 (elimination half-life), AUC^PK (area under the plasma concentration-time curve), Vd (volume of distribution), and CL (clearance) were calculated using non-compartmental methods with Phoenix WinNonlin version 6.4 (Pharsight Inc., CA, USA).

[1] = human, plasma, 20 mg, 20 mg iv, CYP2C19 PM (n = 6)
[2] = human, plasma, 20 mg, 20 mg iv, CYP2C19 hetEM (n = 9)
[3] = human, plasma, 20 mg, 20 mg iv, CYP2C19 homEM (n = 8)
[4] = human, plasma, 20 mg, 20 mg iv, Total (n = 23)
[5] = human, plasma, 30 mg, 30 mg iv, CYP2C19 PM (n = 7)
[6] = human, plasma, 30 mg, 30 mg iv, CYP2C19 hetEM (n = 10)
[7] = human, plasma, 30 mg, 30 mg iv, CYP2C19 homEM (n = 11)
[8] = human, plasma, 30 mg, 30 mg iv, Total (n = 28)
[9] = human, plasma, 20 mg iv, CYP2C19 PM (n = 6)

dose proportionality of Cmax and AUC^PK (20 vs 30 mg iv): exhibit dose proportionality | differences in PK parameters among ABCB1 genotypes (ABCB1 C3435T CC, CT, TT): no statistical significant differences | Vd [1]: 11 L | clearance [1]: 34.7 mL/min | half-life [1]: 3.65 h | Vd [2]: 8.78 ± 1.35 L | clearance [2]: 76.7 mL/min | half-life [2]: 1.37 ± 0.24 h | Vd [3]: 10.4 ± 1.07 L | clearance [3]: 113 mL/min | half-life [3]: 1.18 ± 0.4 h | Vd [4]: 9.62 ± 1.45 L | clearance [4]: 90.2 mL/min | half-life [4]: 1.41 ± 0.64 h | Vd [5]: 9.58 ± 1.56 L | clearance [5]: 40.2 mL/min | half-life [5]: 3.96 ± 1.54 h | Vd [6]: 8.2 ± 1.73 L | clearance [6]: 61.5 mL/min | half-life [6]: 1.56 ± 0.15 h | Vd [7]: 10.7 ± 1.23 L | clearance [7]: 115 mL/min | half-life [7]: 1.14 ± 0.28 h | Vd [8]: 9.78 ± 1.69 L | clearance [8]: 78.2 mL/min | half-life [8]: 2.17 ± 1.57 h | AUC(0-inf) [9]: 9600 ng·h/mL | Cmax [9]: 1670 ng/mL | AUC (human, plasma, 20 mg iv, CYP2C19 PM (n = 6), read-out: AUC0-tCon-t): 9490 ng·h/mL | Tmax (human, plasma, 20 mg iv, CYP2C19 homEM (n = 8)): 1 h | Tmax (human, plasma, 30 mg iv, Total (n = 28)): 1 h | AUC^PK for CYP2C19 PMs relative to CYP2C19 homEMs (same dose group): 3- to 4 fold | t1/2 for CYP2C19 PMs relative to CYP2C19 homEMs (same dose group): 3- to 4 fold
SMILES: Cc1c(OCC(F)(F)F)ccnc1C[S@@+]([O-])c1nc2ccccc2[nH]1 [dexlansoprazole]
